Counter-ions that a name gives are not always drawn. One block for each compound: values may come before it.
Tests used:
[1] = system: B16/F10 mouse melanoma cells; test: Tumour fixation, full-body scintigraphy of mice grafted with B16/F10 tumours (tumour-to-muscle ratio, spermine competition); type: in vivo; conditions: protocol of example 30, 1)
Protocol: 10 days post-grafting, the radiolabelled probe was injected into the mice. Imaging was performed according to the protocol described in example 24 above.
B16/F10 mouse melanoma cells (2.5.10^5 cells) were injected subcutaneously in the right back paw of male C57BL/6 mice. 10 days post-grafting, the complex having formula (II) (14.8 MBq) was injected into 18 mice, 400 μg of spermine having been previously injected into 8 of these mice. Full-body scintigraphic images were then produced 30 min and 2 hours post-injection. For this, the mice, anaesthetised with isoflurane gas, were imaged in the ventral decubitus position on a gamma-camera (γ Imager, BIOSPACE Mesures) with IRIS software (Ariès Nucléaire, France) with the following parameters: • Spectral window: 121-164 KeV • Acquisition time: 3 min • Grid: 256*256
For all the images, a region of interest was plotted around the tumour and another of the same size was defined on the muscle of the contralateral paw to determine the tumour-to-muscle ratio.
The study was conducted according to the protocol described in example 30, 1) above with other complexes having formula (II).

B16 cells = test: In vitro incorporation in cells with spermine competition (gamma counter); type: cell-based, mouse; conditions: 30 minutes incubation, 0.2 μM complex, increasing concentration of spermine, FIG. 1
Protocol: (§1) A549 and B16 cells were placed in culture in 24-well plates (2.10^5 cells/well). After 24 hours, the cells were incubated for 30 minutes with the complex having formula (II) at various concentrations or with 0.2 μM of complex having formula (II) optionally in the presence of an increasing concentration of spermine used for evaluating competition with the probe. After incubation, the plates were placed on ice and the cells were rinsed with cold 0.9% NaCl supplemented with 1 mM of spermidine. The cells received a treatment with trypsin. They were suspended in PBS. The activity of each well was measured using a gamma counter.

A549 cells = test: as above; type: cell-based; conditions: 30 minutes incubation, 0.2 μM complex, increasing concentration of spermine, FIG. 1
Protocol: as §1

[2] = Plasmatic stability after intravenous injection (radio-HPLC of serum); type: in vivo, mice
Protocol: 14.8 MBq of complex having formula (II) were injected intravenously to healthy male C57BL/6 mice. 30 minutes, 1 h, 2 h, 3 h and 5 hours post-injection, blood samples on heparin were taken from the retro-orbital cavity. These samples were then centrifuged for 5 minutes to collect at least 100 μL of serum. 50 enabled exclusion-diffusion radio-HPLC on a TSK SW2000 column+7.8*300 mm 5μ pre-column (Tosoh bioscience) with a mobile phase (flow rate of 1. ml/min at ambient temperature) consisting of 0.9% NaCl (100%). Macaque albumin labelled with ^99mTc was used to test the albumin retention time. The remaining 50 μL of serum was used to perform reverse-phase radio-HPLC, after protein denaturation with acetonitrile, on an XBridge C8 4.6*250 mm 5μ column (Waters, USA) with a mobile phase (flow rate of 1 ml/min at ambient temperature) consisting of water (55%), acetonitrile (45%) and TFA (0.1%).

[3] = mouse, in vivo
[4] = Biodistribution in healthy mice; conditions: C57BL/6 mice, intravenous, 30 min to 24 hours post-injection

SMILES: NCCCCNCCCNC(=O)c1ccc(NN)nc1 [Example 6, N-[3-(4-amino-butylamino)-propyl]-6-hydrazino-nicotinamide]
- Tumour-to-muscle ratio compared with the other compounds [1]: lower than with the other compounds

SMILES: NCCCCNC(=O)c1ccc(NN)nc1 [Example 3, N-(4-Amino-butyl)-6-hydrazino-nicotinamide]
- Tumour-to-muscle ratio compared with the other compounds [1]: lower than with the other compounds

- melting point: 183 °C
SMILES: NCCCCNCCCNC(=O)c1ccc(NN)nc1 (as salt: hydrochloride) [Example 6, N-[3-(4-amino-butylamino)-propyl]-6-hydrazino-nicotinamide]

- melting point: 237.5 °C
SMILES: NCCCNCCCCNCCCNC(=O)c1ccc(NNC(=O)C(F)(F)F)nc1 (as salt: hydrochloride) [Example 14, N-{3-[4-(3-amino-propylamino)-butylamino]-propyl}-6-[N′-(2,2,2-trifluoro-acetyl)-hydrazino]-nicotinamide]

SMILES: NCCCNCCCCNCCCNC(=O)c1ccc(N[NH][Tc]234([O]CC(CO)(CO)[N]2CC(=O)[O]3)[O]C(=O)C[N]4C(CO)(CO)CO)nc1
- Observations ([1]; B16/F10 tumour in C57BL/6 mice): Tumour fixation
- Effect of spermine on incorporation of the complex (B16 cells): partially inhibits
- Effect of spermine on incorporation of the complex (A549 cells): partially inhibits
- Proportion of injected complex eliminated ([2]; at 30 minutes after intravenous injection, healthy male C57BL/6 mice): 38%
- Trans-chelation of Technetium on plasma albumin ([2]; from 30 minutes after intravenous injection, exclusion-diffusion radio-HPLC): trans-chelated on the plasma albumin
- Complex stability in plasma ([2]; reverse-phase radio-HPLC of serum, 30 minutes to 5 hours post-injection): good complex stability
- Risk of renal toxicity or side-effects due to dosimetry [3]: no risk of renal toxicity or side-effects due to dosimetry
- Distribution in organs [4]: distributed quasi-homogeneously throughout the organs
- Persistence of fixation [4]: only persists in the liver and kidneys
